How the values were obtained:
[1] = tested on: Huh7.5 cells; assay: visualization of intracellular LD by BODIPY in Huh7.5 cells; type: cell-based; conditions: 20 μM, 72 h
Experimental: Huh7.5 cells were incubated in a 24-well plate on top of coverslip in the presence of either DMSO, 8 μM of 10j, or 20 μM of A922500 for 72 h. Then, Huh7.5 cells were fixed by using 4% paraformaldehyde for 15 min and stained with 0.001% BODIPY 493/503 D3922 (Invitrogen, Carlsbad, CA, USA) for 10 min. The coverslips were mounted onto slides using Prolong Gold anti-fade reagent with DAPI (Invitrogen, Carlsbad, CA, USA) Fluorescence were examined and captured by Nikon confocal laser scanning microscopic system. LD content was quantified using the ImageJ program.

[2] = tested on: luciferase-linked genotype 2a HCV RNAs; assay: microbe, parasite or virus in culture; type: cell-based, hepatitis C virus; conditions: Hepatitis C virus, Huh7.5, luciferase-linked genotype 2a HCV RNA in Huh7.5 cells; read-out: EC50 (HCV replication)
Experimental: (§1) To order to study impacts of DGAT inhibitors on HCV genome replication independently of the particle production, we decided to examine effects of these twelve DGAT inhibitors on the levels of viral RNA genome and cell viability in parallel. […] Then, we treated them with an increasing concentration of each DGAT inhibitor. Then, luciferase and MTT-based cell viability assays were performed to determine EC50 and CC50 (cytotoxic concentration required to kill 50% of treated cells) values, respectively.
(§2) Cell viability was measured with EZ-CYTOX (10% tetrazolium salt; Dogen, Gyeonggi-do, Korea) as described previously. Anti-HCV replication analysis using a luciferase assay was conducted as previously described.

[3] = tested on: JFH1-NS5A-GFP cells; assay: NS5A-GFP and Oil Red O imaging in JFH1-NS5A-GFP cells; type: cell-based, hepatitis C virus
Experimental: Based on previous results, we noticed that EC50 values required for inhibition of the HCV genome replication by 10j were around 1–2 μM ranges (Figure 2 and Table 3). However, IC50 value required for inhibition of the enzymatic DGAT activities in vitro by 10j was reported to be higher than 5 μM (Table 2 and Figure 6E). Based on these observations, we hypothesized that inhibition of DGATs by 10j may not play a direct role in suppression of the viral genome replication. To test this hypothesis, we decided to study effects of 10j on DGAT and the viral genome replication in a simultaneous manner. […] Then, the viral NS3 protein and LDs were visualized by using an anti-NS3 antibody and BODIPY, respectively. […] Significant reduction of LD was only seen after treatment of 10j higher than 5 μM. In order to confirm this observation, we decided to utilize another HCV-positive cell—JFH1-NS5A-GFP cells—which were infected with infectious HCV genotype 2a particles with a visually tractable NS5A due to the presence of in-frame-fused GFP protein with NS5A. TGs of these cells were stained with ORO for visualization in parallel. […]
Immunofluorescence analysis of Huh7.5-J6/JFH1 or Huh7.5-JFH1-5A-GFP cells in the presence of 10j was conducted as previously described. Fluorescence were examined and captured by Nikon confocal laser scanning microscopic system. LD content was quantified using the ImageJ program.

[4] = tested on: HCV genotype 2a (Huh7.5-J6/JFH1); assay: microbe, parasite or virus in culture; conditions: Hepatitis C virus, read-out: EC50 on HCV genome replication
Excerpt: We previously synthesized and characterized twelve DGAT inhibitors with a different DGAT specificity. […] A922500, a commercially available DGAT-1-specific inhibitor was used as a positive control. In spite of a wealth of knowledge on an essential role of DGAT-1 in the HCV particle assembly and production, less attention has been paid to potential functions of DGATs in other steps of the viral life cycle. Therefore, we decided to examine effects of these twelve DGAT inhibitors on HCV particle production as well as RNA genome replication in parallel. For this purpose, we transfected Huh7.5 cells with in vitro-transcribed genotype 2a HCV RNAs (Huh7.5-J6/JFH1) and treated them with each DGAT inhibitor for 6 and 72 h at 10 μM. HCV genome replication as well as host GAPDH RNA levels was quantitated by a real-time RT-PCR analysis. For assessment of HCV particle production, we harvested and filtered the supernatant from Huh7.5-J6/JFH1 cells treated with DGAT inhibitors and incubated the supernatant with naïve huh7.5 cells for 72 h. Then, infectivity was measured by a real-time RT-PCR analysis.
Quantitative real-time RT-PCR analysis to measure levels of HCV RNA and GAPDH was conducted as previously described. The cDNA synthesis and reverse transcription of miR-122 were performed by using Taqman quantitative RT-PCR (qRT-PCR) analysis. Taqmanq RT-PCR components including TaqMan miR122 probe, endogenous control U6 probe, TaqMan® MicroRNA reverse transcription Kit and TaqMan® universal master mix II were purchased from Thermo Fisher Scientific (Waltham, MA, USA)
Huh7.5-J6/JFH-1 cells were seeded into 6-well plates at a density of 3 × 10^5 cells per well with DMEM containing 10% FBS. After 24 h, they are incubated with either DMSO, increasing concentrations of 10j for 3, 6, 12, 24, 48, and 72 h, or increasing concentrations of A922500 for 6, 12, 24, 48, and 72 h. Total RNAs were extracted from treated cells and virus-containing media were harvested at each time point. Naïve Huh7.5 cells were infected with these virus-containing media after concentration with centricons. Total RNAs were extracted from Huh7.5 cells infected with virus-containing media. qRT-PCR analysis was performed to measure effect of 10j on HCV replication and virus particle production.

[5] = tested on: recombinant DGAT-1; parameters: method as in PMID 23242135; conditions: recombinant DGAT-1, [14C] oleoyl-CoA as acyl-donor; cited from earlier work
[6] = tested on: HCV genotype 2a (Huh7.5-J6/JFH1); assay: HCV particle production: infectivity of supernatant on naive Huh7.5 cells by real-time RT-PCR; type: cell-based, hepatitis C virus; conditions: Hepatitis C virus, read-out: EC50 on HCV particle production
Experimental: A922500, a commercially available DGAT-1-specific inhibitor was used as a positive control [10]. […] Therefore, we decided to examine effects of these twelve DGAT inhibitors on HCV particle production as well as RNA genome replication in parallel. For this purpose, we transfected Huh7.5 cells with in vitro-transcribed genotype 2a HCV RNAs (Huh7.5-J6/JFH1) [16] and treated them with each DGAT inhibitor for 6 and 72 h at 10 μM. HCV genome replication as well as host GAPDH RNA levels was quantitated by a real-time RT-PCR analysis. For assessment of HCV particle production, we harvested and filtered the supernatant from Huh7.5-J6/JFH1 cells treated with DGAT inhibitors and incubated the supernatant with naïve huh7.5 cells for 72 h. Then, infectivity was measured by a real-time RT-PCR analysis.
Huh7.5-J6/JFH-1 cells were seeded into 6-well plates at a density of 3 × 10^5 cells per well with DMEM containing 10% FBS. […] Total RNAs were extracted from treated cells and virus-containing media were harvested at each time point. Naïve Huh7.5 cells were infected with these virus-containing media after concentration with centricons.

[7] = MTT-based cell viability assay (EZ-CYTOX); conditions: human
Experimental: as §1, §2

[8] = tested on: Huh7.5 cells; assay: TG quantification assay in Huh7.5 cells; type: cell-based; conditions: 20 μM
Experimental: Cells were washed with cold PBS, suspended, and homogenized in 1 mL of 5% NP-40/ddH2O solution. Then, homogenized cells were slowly heated to 90 °C for 5 min or until the NP-40 becomes cloudy, then cooled down to room temperature. Previous step was repeated to solubilize all TG. Cells were centrifuged for 2 min at top speed using a microcentrifuge to remove any insoluble material. Samples were diluted 10-fold with ddH2O before proceeding with the assay. […] Samples were added with 50 μL of reaction mix into each well and incubated at room temperature for 60 min while protected from light. Fluorescence was measured by using a fluorometric reader with Ex/Em = 535/590 nm. The amount of TG from standard sample was calculated using the following equation: Ts=Corrected absorbance−(y−intercept)/slope The amount of intracellular TG was calculated using the following equation: Concentration=Ts/Sv*D where the Ts is the amount of TG from standard curve and Sv is the volume of sample added to sample wells and D is the sample dilution factor.

[9] = tested on: HCV; parameters: method as in PMID 27788579; conditions: read-out: EC50 in vitro; cited from earlier work

Row | Structure (SMILES) | increase in the level of LDs (BODIPY) [1] | EC50 [2] | abundance of GFP-tagged NS5A proteins or ORO-stained LDs [3] | EC50 ([4]; 6 h) | EC50 ([4]; 12 h) | EC50 ([4]; 24 h) | EC50 ([4]; 48 h) | EC50 ([4]; 72 h) | IC50 [5] | EC50 ([6]; Huh7.5, 6 h) | EC50 ([6]; Huh7.5, 12 h) | EC50 ([6]; Huh7.5, 24 h) | EC50 ([6]; Huh7.5, 48 h) | EC50 ([6]; Huh7.5, 72 h) | CC50 [7] | suppression of endogenous level of TG [8] | EC50 [9]
1 | O=C(Nc1ccccc1)Nc1ccc(-c2ccc(C(=O)[C@@H]3CCC[C@H]3C(=O)O)cc2)cc1 [A922500, reference compound] | 45% | 50.8 µM | failed to induce any significant changes | > 100 µM | > 100 µM | > 100 µM | > 100 µM | > 100 µM | 0.007 µM | 34.3 µM | 76.6 µM | 68.6 µM | 42.2 µM | 22 µM | 71.9 µM | 25% | 
2 | O=C(O)C[C@H]1CC[C@H](c2ccc(-c3ccc(Nc4ccc(C(F)(F)F)nc4)cn3)cc2)CC1 [pradigastat] |  |  |  |  |  |  |  |  |  |  |  |  |  |  |  |  | 30 µM
